Columns and labels:
rice flat sedge = experiment: Test Example 3: herbicidal effect by foliage application, Wagner pot (Table 18, symbol E); type: in vivo, rice flat sedge (Cyperus iria); details: for herbicidal effect on rice flat sedge (E): 320 g/ha
Method in brief: (§1)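 Plants were sown in alluvial soil held under 0.1–0.5 cm standing water and grown 14 days in a greenhouse at 25–30 °C. An emulsifiable formulation, water-diluted to the set dose, was then sprayed onto the foliage, and effects were scored three weeks later using previously defined criteria.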

barnyard grass [1] = experiment: Test Example 5: herbicidal effect by foliage application, plastic box (Table 20, symbol H); type: in vivo, barnyard grass (Echinochloa crus-galli)
Method in brief: (§2)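 Foliar spray test: emulsion formulation diluted in water to a set application rate, sprayed onto 14-day-old plants raised in diluvial soil at 25° C to 30° C under glass. Both herbicidal effect and crop effect rated visually three weeks later.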

southern crabgrass = experiment: Test Example 5: herbicidal effect by foliage application, plastic box (Table 20, symbol F); type: in vivo, southern crabgrass (Digitaria ciliaris)
Method in brief: as §2

blackgrass = experiment: Test Example 5: herbicidal effect by foliage application, plastic box (Table 20, symbol J); type: in vivo, blackgrass (Alopecurus myosuroides)
Method in brief: as §2

barnyard grass [2] = experiment: Test Example 3: herbicidal effect by foliage application, Wagner pot (Table 18, symbol H); type: in vivo, barnyard grass (Echinochloa crus-galli); details: for herbicidal effect on barnyard grass (H): 320 g/ha
Method in brief: as §1

Italian ryegrass = experiment: Test Example 5: herbicidal effect by foliage application, plastic box (Table 20, symbol K); type: in vivo, Italian ryegrass (Lolium multiflorum)
Method in brief: as §2

lambsquarters = experiment: Test Example 5: herbicidal effect by foliage application, plastic box (Table 20, symbol O); type: in vivo, lambsquarters (Chenopodium album)
Method in brief: as §2

Chinese sprangletop = experiment: Test Example 3: herbicidal effect by foliage application, Wagner pot (Table 18, symbol D); type: in vivo, chinese sprangletop (Leptochloa chinensis); details: for herbicidal effect on Chinese sprangletop (D): 320 g/ha
Method in brief: as §1

persian speedwell = experiment: Test Example 5: herbicidal effect by foliage application, plastic box (Table 20, symbol R); type: in vivo, Persian speedwell (Veronica persica)
Method in brief: as §2

redroot pigweed = experiment: Test Example 5: herbicidal effect by foliage application, plastic box (Table 20, symbol N); type: in vivo, redroot pigweed (Amaranthus retroflexus)
Method in brief: as §2

velvetleaf = experiment: Test Example 5: herbicidal effect by foliage application, plastic box (Table 20, symbol M); type: in vivo, velvetleaf (Abutilon theophrasti)
Method in brief: as §2

chickweed = experiment: Test Example 5: herbicidal effect by foliage application, plastic box (Table 20, symbol P); type: in vivo, common chickweed (Stellaria media)
Method in brief: as §2

false cleavers = experiment: Test Example 5: herbicidal effect by foliage application, plastic box (Table 20, symbol Q); type: in vivo, false cleavers (Galium spurium)
Description: [Test Example 5] Herbicidal Effect Test by Foliage Application
Sterilized diluvial soil was placed in a plastic box having a length of 21 cm, a width of 13 cm, and a depth of 7 cm. The seeds of each of southern crabgrass, green foxtail, barnyard grass, wild oat, blackgrass, Italian ryegrass, windgrass, velvetleaf, redroot pigweed, lambsquarters, chickweed, false cleavers, persian speedwell, corn, soybean, rice, wheat, beet, and rapeseed were sowed in a spot-like manner and covered with the soil having a thickness of about 1.5 cm. Thereafter, the plants were grown in a greenhouse at 25° C. to 30° C. After 14-day growth of the plants, the emulsion agent of the compound of the present invention prepared according to Formulation Example 2 was diluted with water so as to achieve a predetermined herbicide amount, and the diluted emulsion agent was uniformly applied to a foliage part with a small-sized spray. Three weeks after the herbicide application, the effect of the herbicide on each plant was evaluated according to the criteria of Test Example 1.

windgrass = experiment: Test Example 5: herbicidal effect by foliage application, plastic box (Table 20, symbol L); type: in vivo, windgrass (Apera spica-venti)
Method in brief: as §2

wild oat = experiment: Test Example 5: herbicidal effect by foliage application, plastic box (Table 20, symbol I); type: in vivo, wild oat (Avena fatua)
Method in brief: as §2

green foxtail = experiment: Test Example 5: herbicidal effect by foliage application, plastic box (Table 20, symbol G); type: in vivo, green foxtail (Setaria viridis)
Method in brief: as §2

[3] = amount of applied herbicide 320 g/ha, foliage application after 14-day growth, evaluated three weeks after application
[4] = 320 g/ha, foliage application after 14-day growth, evaluated three weeks after application
[5] = foliage application, AAH 197 g/ha, three weeks after application

`CCSc1ccccc1-c1sc2c(C)cccc2c1-c1c(O)c(C)nn(C)c1=O` [4-120] was tested, and the “herbicidal effect on rice flat sedge (E)” value (rice flat sedge) was 2 (Herbicidal rate of 20% or more and less than 40%), the “Herbicidal effect by foliage application, H: barnyard grass” value (barnyard grass [1]; [3]) was 0 (Herbicidal rate of 5% or less (almost no effect)) and the “Herbicidal effect by foliage application, F: southern crabgrass” value (southern crabgrass; [3]) was 0 (Herbicidal rate of 5% or less (almost no effect)). For the same compound, the “Herbicidal effect by foliage application, J: blackgrass” value (blackgrass; [3]) was 0 (Herbicidal rate of 5% or less (almost no effect)), the “herbicidal effect on barnyard grass (H)” value (barnyard grass [2]) was 2 (Herbicidal rate of 20% or more and less than 40%) and the “Herbicidal effect by foliage application, K: Italian ryegrass” value (Italian ryegrass; [3]) was 0 (Herbicidal rate of 5% or less (almost no effect)). For the same compound, the “Herbicidal effect by foliage application, O: lambsquarters” value (lambsquarters; [3]) was 0 (Herbicidal rate of 5% or less (almost no effect)), the “herbicidal effect on Chinese sprangletop (D)” value (Chinese sprangletop) was 3 (Herbicidal rate of 40% or more and less than 70%) and the “Herbicidal effect by foliage application, R: persian speedwell” value (persian speedwell; [3]) was 5 (Herbicidal rate of 90% or more (almost completely withered)). The “Herbicidal effect by foliage application, N: redroot pigweed” value (redroot pigweed; [3]) was 0 (Herbicidal rate of 5% or less (almost no effect)), the “Herbicidal effect by foliage application, M: velvetleaf” value (velvetleaf; [3]) was 0 (Herbicidal rate of 5% or less (almost no effect)) and the “Herbicidal effect by foliage application, P: chickweed” value (chickweed; [3]) was 5 (Herbicidal rate of 90% or more (almost completely withered)). For the same compound, the “Herbicidal effect by foliage application, Q: false cleavers” value (false cleavers; [3]) was 0 (Herbicidal rate of 5% or less (almost no effect)), the “Herbicidal effect by foliage application, L: windgrass” value (windgrass; [3]) was 0 (Herbicidal rate of 5% or less (almost no effect)) and the “Herbicidal effect by foliage application, I: wild oat” value (wild oat; [3]) was 0 (Herbicidal rate of 5% or less (almost no effect)). The “Herbicidal effect by foliage application, G: green foxtail” value (green foxtail; [3]) was 0 (Herbicidal rate of 5% or less (almost no effect)).
For `COc1cccc(-c2sc3c(Cl)cccc3c2-c2c(O)c(C)nn(C)c2=O)c1` [4-064], the “herbicidal effect on rice flat sedge (E)” value (rice flat sedge) was 4 (Herbicidal rate of 70% or more and less than 90%), the “herbicidal effect on H: barnyard grass (evaluation grade 0-5)” value (barnyard grass [1]; [4]) was 1 (Herbicidal rate of 5% or more and less than 20%) and the “herbicidal effect on F: southern crabgrass (evaluation grade 0-5)” value (southern crabgrass; [4]) was 1 (Herbicidal rate of 5% or more and less than 20%). The “herbicidal effect on J: blackgrass (evaluation grade 0-5)” value (blackgrass; [4]) was 0 (Herbicidal rate of 5% or less (almost no effect)), the “herbicidal effect on barnyard grass (H)” value (barnyard grass [2]) was 4 (Herbicidal rate of 70% or more and less than 90%) and the “herbicidal effect on K: Italian ryegrass (evaluation grade 0-5)” value (Italian ryegrass; [4]) was 3 (Herbicidal rate of 40% or more and less than 70%). The “herbicidal effect on O: lambsquarters (evaluation grade 0-5)” value (lambsquarters; [4]) was 3 (Herbicidal rate of 40% or more and less than 70%), the “herbicidal effect on Chinese sprangletop (D)” value (Chinese sprangletop) was 3 (Herbicidal rate of 40% or more and less than 70%) and the “herbicidal effect on R: persian speedwell (evaluation grade 0-5)” value (persian speedwell; [4]) was 5 (Herbicidal rate of 90% or more (almost completely withered)). The “herbicidal effect on N: redroot pigweed (evaluation grade 0-5)” value (redroot pigweed; [4]) was 5 (Herbicidal rate of 90% or more (almost completely withered)), the “herbicidal effect on M: velvetleaf (evaluation grade 0-5)” value (velvetleaf; [4]) was 3 (Herbicidal rate of 40% or more and less than 70%) and the “herbicidal effect on P: chickweed (evaluation grade 0-5)” value (chickweed; [4]) was 5 (Herbicidal rate of 90% or more (almost completely withered)). For the same compound, the “herbicidal effect on Q: false cleavers (evaluation grade 0-5)” value (false cleavers; [4]) was 1 (Herbicidal rate of 5% or more and less than 20%), the “herbicidal effect on L: windgrass (evaluation grade 0-5)” value (windgrass; [4]) was 5 (Herbicidal rate of 90% or more (almost completely withered)) and the “herbicidal effect on I: wild oat (evaluation grade 0-5)” value (wild oat; [4]) was 0 (Herbicidal rate of 5% or less (almost no effect)). For the same compound, the “herbicidal effect on G: green foxtail (evaluation grade 0-5)” value (green foxtail; [4]) was 3 (Herbicidal rate of 40% or more and less than 70%).
For `Cc1nn(C)c(=O)c(-c2c(-c3cc4c(cc3Cl)OCCO4)sc3ccccc23)c1O` [1-095], the “herbicidal effect on E (rice flat sedge), rating 0-5” value (rice flat sedge; 197 g/ha) was 1 (Herbicidal rate of 5% or more and less than 20%), the “H: barnyard grass, herbicidal effect” value (barnyard grass [1]; [5]) was 0 (Herbicidal rate of 5% or less (almost no effect)) and the “F: southern crabgrass, herbicidal effect” value (southern crabgrass; [5]) was 0 (Herbicidal rate of 5% or less (almost no effect)). For the same compound, the “J: blackgrass, herbicidal effect” value (blackgrass; [5]) was 0 (Herbicidal rate of 5% or less (almost no effect)), the “herbicidal effect on H (barnyard grass), rating 0-5” value (barnyard grass [2]; 197 g/ha) was 4 (Herbicidal rate of 70% or more and less than 90%) and the “K: Italian ryegrass, herbicidal effect” value (Italian ryegrass; [5]) was 0 (Herbicidal rate of 5% or less (almost no effect)). For the same compound, the “O: lambsquarters, herbicidal effect” value (lambsquarters; [5]) was 0 (Herbicidal rate of 5% or less (almost no effect)), the “herbicidal effect on D (Chinese sprangletop), rating 0-5” value (Chinese sprangletop; 197 g/ha) was 0 (Herbicidal rate of 5% or less (almost no effect)) and the “R: persian speedwell, herbicidal effect” value (persian speedwell; [5]) was 4 (Herbicidal rate of 70% or more and less than 90%). For the same compound, the “N: redroot pigweed, herbicidal effect” value (redroot pigweed; [5]) was 0 (Herbicidal rate of 5% or less (almost no effect)), the “M: velvetleaf, herbicidal effect” value (velvetleaf; [5]) was 0 (Herbicidal rate of 5% or less (almost no effect)) and the “P: chickweed, herbicidal effect” value (chickweed; [5]) was 3 (Herbicidal rate of 40% or more and less than 70%). The “Q: false cleavers, herbicidal effect” value (false cleavers; [5]) was 3 (Herbicidal rate of 40% or more and less than 70%), the “L: windgrass, herbicidal effect” value (windgrass; [5]) was 0 (Herbicidal rate of 5% or less (almost no effect)) and the “I: wild oat, herbicidal effect” value (wild oat; [5]) was 0 (Herbicidal rate of 5% or less (almost no effect)). For the same compound, the “G: green foxtail, herbicidal effect” value (green foxtail; [5]) was 0 (Herbicidal rate of 5% or less (almost no effect)).

Reference: patent US20230085307A1, “PYRIDAZINONE COMPOUND AND HERBICIDE” (NISSAN CHEMICAL CORPORATION, priority 2019, published 2023)
